Experimental data: patent publication US20100166848A1, “LIPOSOMAL FORMULATIONS FOR TREATING CANCER” (priority 2007, published 2010)

Key:
[1] = test system: SW620 cells; test: 5-FU tumoral metabolism study with tritiated 5-FU; assay type: cell-based, human; settings: SW620, 1 μM tritiated 5-FU, 3-6 h observation period
Method: (§1) All experiments were carried out in the 5-FU-resistant, human colon carcinoma cell line SW620 (a.k.a CCL227) which overexpresses TS. Cells were maintained in RPMI supplemented with 10% fetal calf serum, […] and 1% kanamycin in a humidified CO2 incubator at 37° C. All experiments were performed in exponentially growing cells.
Exponentially growing cells were exposed to 1 μM of tritiated 5-FU alone, combined with free d-Ino or as a liposomal preparation [5-FU+d-Ino]-L. After 3, 4 and 6 h exposure, cells were harvested, lysed into 70% methanol and cytosols were isolated by centrifugation (15000 rpm, 30 min) and stored at −80° C. until analysis. Separation of 5-FU and its main metabolites was achieved using a HP1090 HPLC system (Agilent, France) coupled to a Flo-One radioactive detector (Packard, France) and equipped with an RP18 column (Agilent, France), followed by elution with a K2HPO4-TBAN:Methanol gradient as described previously (Ciccolini et al, 2000b).

[2] = test system: SW620 human colon carcinoma cell line; test: Antiproliferative MTT assay, 24 h exposure plus 48 h drug-free; assay type: cell-based; settings: SW-620, SW620, 24 h exposure + 48 h drug-free medium, n=3, read-out: IC50 (5-FU concentration inhibiting 50% of cell growth)
Method: as §1
Cells were seeded at a density of 8×10^4 cells/well in 96-well plates. […] Next, drug was removed and the cells were allowed to grow in fresh medium for an additional 48 h. After 72 h of discontinuous exposure, cell viability was evaluated using the classic colorimetric MTT assay (Alley et al, 1988). The IC50 was defined as the 5-FU concentration inhibiting 50% of cell growth.

[3] = test system: colorectal cancer; settings: monotherapy; cited from earlier work
[4] = test system: SW620 tumor; test: In vivo efficacy, SW620 mouse xenograft model
Method: Four-week old, female Swiss, nude mice (n=5 per group, Charles River, Lyon, France) were subcutaneously inoculated with 1×10^6 SW620 cells on the right flank. […] Drugs were administered intraperitoneously on a 3×/week basis for three consecutive weeks (e.g., D1/D2/D3, D8/D9/D10 and D16/D17/D18). Tumor size was measured three times a week in three dimensions using Vernier calipers, and tumor weight (mg) was calculated using the following standard formula: mass=pi/6XlengthXwidthXheight (Waterhouse et al, 2005). Preliminary experiments performed with empty liposomes were conducted to confirm the absence of any in vivo antiproliferative activity. Animal weight was monitored as a marker of toxicity. Animals were euthanized whenever a 25% loss of initial weight was observed, or when tumors reached 2500 mg.

[5] = test system: 5-FU-resistant SW620 human colorectal cell line; test: MTT testing of triple liposomal formulation, 72 continuous exposure; assay type: cell-based; settings: SW-620
Description: Cell sensitivity was estimated by calculating the respective IC50 of the different regimen (MTT testing, 72 continuous exposure).

O=c1[nH]cc(F)c(=O)[nH]1 [5-FU, 5-fluorouracil]
anti-TS FdUMP synthesis [1]: 83 dpm/mg protein | IC50 [2]: 77 ± 6 µM | response rate [3]: 20% | tumor size reduction at the conclusion of the study ([4]; 5-FU 50 mg/kg, d-Ino 120 mg/kg IP, 3x/week for three weeks): 28% | effect on tumor growth, in words ([4]; as compared with untreated animals): failed to reduce tumor growth | survival time ([4]; controls 16 days): 20 days | increase in survival time compared to controls ([4]; mouse, in vivo): 25% | IC50 [5]: 62 µM
